{"source": "patent US20240344032A1", "about": "“ORGANOID PRODUCTION METHOD, CULTURE MEDIUM FOR ORGANOID PRODUCTION, ORGANOID, AND TEST SUBSTANCE EVALUATION METHOD” (JSR CORPORATION, priority 2021, published 2024)", "key": {"[1]": {"test_system": "ALK5, VEGFR, RIPK2, MINK1, p38a MAPK, PKD1, and FGF-R1", "settings": "known from the literature; cited from earlier work"}, "[2]": {"test_system": "Human small intestinal epithelial cells (including human small intestinal stem cells)", "assay": "Examination of EGFR signal and p38 MAPK signal: culture of small intestinal epithelial cells, bright field observation and Lgr5-tdTomato reporter assay", "assay_type": "cell-based", "protocol": "Upregulation of EGFR signal is known to induce cell proliferation. Therefore, the cell proliferative properties in a state where there was no EGFR signal were examined. […] Therefore, culturing was examined in the presence or absence of the p38 MAPK signal.\nTo the basal medium (Advanced DMEM/F12), each component was added to the concentration shown in Table 5 below to prepare a culture medium. Human small intestinal epithelial cells (including human small intestinal stem cells) were dispersed in Matrigel (registered trademark, manufactured by BD Biosciences). Subsequently, the dispersion product was seeded into each well of a 48-well tissue culture plate and incubated at 37° C. for 10 minutes to polymerize Matrigel (registered trademark).\nSubsequently, 300 μL/well of a culture medium was overlaid, and culturing was carried out at 37° C. for 10 days in the presence of 5% by volume of CO2. The culture medium was exchanged every two or three days. Cells were cultured for 10 days in a culture medium containing EGF and cultured for 14 days in a culture medium containing no EGF. Thereafter, bright field observation with an optical microscope in the well and Lgr5-tdTomato reporter assay were carried out."}, "[3]": {"test_system": "primary human hepatocytes", "assay": "Culturing of human hepatocytes (proliferation of cells)", "assay_type": "cell-based", "protocol": "Cryopreserved primary human hepatocytes in suspension (HEP187-S, manufactured by Biopredic International) were thawed in a water bath at 37° C., suspended in a 50 mL tube to which a serum-free culture medium (a culture medium obtained by adding HEPES, GLUTAMAX, and PENICILIN/STEREPTOMYCIN to Advanced DMEM/F12) had been added, and centrifuged. After the centrifugation, the supernatant was removed, and then the resultant product was suspended in a serum-free culture medium to prepare a human hepatocyte suspension. 20,000 human hepatocytes were collected from the suspension, mixed with 50 μL of Matrigel (registered trademark, manufactured by BD Biosciences), seeded in a 24-well tissue culture plate, and incubated at 37° C. for 10 minutes until Matrigel (registered trademark) was completely polymerized. After the polymerization, a culture medium (500 μL/well) prepared by adding each component to a basal medium to have the concentration shown in Table 4 below was overlaid, and culturing was carried out at 37° C. in the presence of 5% by volume of CO2. Advanced DMEM/F12 was used as a basal medium. The culture medium was exchanged every two or three days.\nFIG. 2 is a graph showing a result of measuring the proliferation of cells.\nFIG. 3 is a graph showing a result of measuring proliferation of cells in a case where the concentration of the #7401 peptide was set to be low."}, "[4]": {"test_system": "p38 MAPK signaling pathway", "settings": "reported in Vogt J., et al., Cell Signal., 2011; cited from earlier work"}, "[5]": {"test_system": "Human colon epithelial cells (including human colon stem cells)", "assay": "Culturing of human colon epithelial cells (organoid formation)", "assay_type": "cell-based", "settings": "0.5 nM, 5 nM, or 50 nM in culture medium, 7 days, optical microscope, FIG. 1", "protocol": "To a basal medium, each component was added to have the concentration shown in Table 3 below to prepare a culture medium. In Table 3, “CM” means conditioned medium. Advanced DMEM/F12 was used as a basal medium. As the peptide, peptide names #7401 and #2392 were used (hereinafter, each may be referred to as “#7401 peptide” and “#2392 peptide”). Regarding the #7401 peptide, a chemical formula is shown in Formula (2-1), and an amino acid sequence (SEQ ID NO: 3) is shown in Formula (2-2). In addition, regarding the #2392 peptide, a chemical formula is shown in Formula (3-1), and an amino acid sequence (SEQ ID NO: 4) is shown in Formula (3-2).\nHuman colon epithelial cells (including human colon stem cells) were dispersed in Matrigel (registered trademark, manufactured by BD Biosciences). Subsequently, the dispersion product was seeded into each well of a 48-well tissue culture plate and incubated at 37° C. for 10 minutes to polymerize Matrigel (registered trademark).\nSubsequently, the culture medium (300 μL/well) prepared in Experimental Example 1 was overlaid on each well, and culturing was carried out at 37° C. for 7 days in the presence of 5% by volume of CO2. The culture medium was exchanged every two or three days."}}, "note": "Where no end group is shown, it is not given here. [ ]: non-standard residue; d: D form. The star is where a group is joined. X1 = 4‑(carboxymethyl)piperazine‑1‑carbonyl, O=C(O)CN1CCN(C(=O)*)CC1; 1Nal = N[C@@H](Cc1cccc2ccccc12)C(=O)O; Gly(NCH2CH2Ph) = O=C(O)CNCCc1ccccc1; 4Pal = N[C@@H](Cc1ccncc1)C(=O)O"}
{"molecule": "Cc1cccc(-c2nn(C(=S)Nc3ccccc3)cc2-c2ccnc3ccccc23)n1", "note": "[Peptide A83-01]", "values": [{"measurement": "action on ALK5 and off-target kinases/receptors", "setting": "[1]", "result": "strongly act"}, {"measurement": "cell proliferative properties and colony forming properties", "setting": "[2]; medium containing EGF (50 ng/mL), no SB202190, 500 nM and 5000 nM, 10 days, FIG. 5", "result": "the cell proliferative properties and the colony forming properties were concentration-dependently inhibited"}, {"measurement": "stem cell properties (Lgr5-tdTomato reporter) versus 50 nM or 500 nM #7401 peptide", "setting": "[2]; medium containing no EGF, no SB202190, 500 nM and 5000 nM, 14 days, FIG. 6", "result": "higher stem cell properties"}, {"measurement": "stem cell properties (Lgr5-tdTomato reporter), 5000 nM versus 500 nM", "setting": "[2]; medium containing no EGF, no SB202190, 14 days, FIG. 6", "result": "higher stem cell properties"}, {"measurement": "proliferation of cells", "setting": "[3]; 5 μM added to the culture medium, FIG. 2", "result": "proliferation of cells is not observed after 35 days"}, {"measurement": "inhibition of p38 MAPK signaling pathway", "setting": "[4]", "result": "inhibits p38 MAPK signaling pathway"}]}
{"molecule": "#2392 peptide: cyclic peptide, chemical formula in Formula (3-1), amino acid sequence (SEQ ID NO: 4) in Formula (3-2) (F[1Nal]VVNVTDD[Gly(NCH2CH2Ph)]V[1Nal]THVCG; bridge (positions not given here); not fully specified (bridges))", "values": [{"measurement": "organoid formation efficiency compared with A83-01", "setting": "[5]", "result": "organoids can be formed with an efficiency equal to or higher than that in a case where A83-01 was added"}]}
{"molecule": "#7401 peptide: cyclic peptide, chemical formula in Formula (2-1), amino acid sequence (SEQ ID NO: 3) in Formula (2-2) (F[1Nal]VVNV[4Pal]DD[Gly(NCH2CH2Ph)]V[1Nal]THK(X1)CG; bridge (positions not given here); not fully specified (bridges))", "values": [{"measurement": "proliferation of cells", "setting": "[3]; 50 nM in the culture medium, FIG. 3", "result": "cells can sufficiently proliferate"}, {"measurement": "organoid formation efficiency compared with A83-01", "setting": "[5]", "result": "organoids can be formed with an efficiency equal to or higher than that in a case where A83-01 was added"}]}
